Experimental data reported in the supplement of paper PMC9663587.

How the values were obtained:
[1] = compound: CCN1CCN(Cc2ccc(Nc3ncc(F)c(-c4cc(F)c5nc(C)n(C(C)C)c5c4)n3)nc2)CC1; assay: increase in dead-cell fraction, 72 h; higher = more death;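 also: breast cancer cell lines in 384-well plates, stained with Hoechst plus LIVE/DEAD far red dye and imaged, cells above an LDR intensity threshold counted dead, Hoechst-negative corpses included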
Flavopiridol [2] = compound: T1, CN1CC[C@H](c2c(O)cc(O)c3c(=O)cc(-c4ccccc4Cl)oc23)[C@H](O)C1 [Flavopiridol]; assay: as above
YKL-5-124 = compound: C=CC(=O)Nc1ccc(C(=O)Nc2[nH]nc3c2CN(C(=O)N[C@H](CN(C)C)c2ccccc2)C3(C)C)cc1 [YKL-5-124]; assay: GR value, 72 h; higher = faster growth (1 = untreated, <0 = killing);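 also: breast cancer and non-malignant breast epithelial lines, nine half-log doses, viable cells counted by Hoechst and LIVE/DEAD dye imaging versus time-zero plates and DMSO controls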
BSJ-03-123 = compound: CC(=O)c1c(C)c2cnc(Nc3ccc(N4CCN(CCOCCOCCOCCNC(=O)COc5cccc6c5C(=O)N(C5CCC(=O)NC5=O)C6=O)CC4)cn3)nc2n(C2CCCC2)c1=O [BSJ-03-123]; assay: as above
[3] = compound: CC(=O)c1c(C)c2cnc(Nc3ccc(N4CCNCC4)cn3)nc2n(C2CCCC2)c1=O; assay: as above
[4] = compound: CCN1CCN(Cc2ccc(Nc3ncc(F)c(-c4cc(F)c5nc(C)n(C(C)C)c5c4)n3)nc2)CC1; assay: as above
Neratinib/HKI272 = compound: CCOc1cc2ncc(C#N)c(Nc3ccc(OCc4ccccn4)c(Cl)c3)c2cc1NC(=O)/C=C/CN(C)C [Neratinib/HKI272]; assay: as above
[5] = compound: CCc1cnn2c(NCc3ccc[n+]([O-])c3)cc(N3CCCC[C@H]3CCO)nc12; assay: as above
LEE011/Ribociclib = compound: CN(C)C(=O)c1cc2cnc(Nc3ccc(N4CCNCC4)cn3)nc2n1C1CCCC1 [LEE011/Ribociclib]; assay: as above
THZ531 = compound: CN(C)C/C=C/C(=O)Nc1ccc(C(=O)N2CCC[C@@H](Nc3ncc(Cl)c(-c4c[nH]c5ccccc45)n3)C2)cc1 [THZ531]; assay: as above
THZ1 = compound: CN(C)C/C=C/C(=O)Nc1ccc(C(=O)Nc2cccc(Nc3ncc(Cl)c(-c4c[nH]c5ccccc45)n3)c2)cc1 [THZ1]; assay: as above
Flavopiridol [6] = compound: T1, Flavopiridol; assay: as above

HTERT_HME1
increase in dead-cell fraction ([1]; 0.001 µM): 0.0004
increase in dead-cell fraction ([1]; 0.003162 µM): -0.0056
increase in dead-cell fraction ([1]; 0.01 µM): -0.0023
increase in dead-cell fraction ([1]; 0.03162 µM): 0.002
increase in dead-cell fraction ([1]; 0.1 µM): 0.0067
increase in dead-cell fraction ([1]; 0.3162 µM): 0.0112
increase in dead-cell fraction ([1]; 1 µM): 0.0329
increase in dead-cell fraction ([1]; 3.162 µM): 0.0399
increase in dead-cell fraction ([1]; 10 µM): 0.111
increase in dead-cell fraction (Flavopiridol [2]; 0.0001 µM): -0.0184
increase in dead-cell fraction (Flavopiridol [2]; 0.0003162 µM): -0.0042
increase in dead-cell fraction (Flavopiridol [2]; 0.001 µM): 0.0033
increase in dead-cell fraction (Flavopiridol [2]; 0.003162 µM): 0.0052
increase in dead-cell fraction (Flavopiridol [2]; 0.01 µM): 0.0001
increase in dead-cell fraction (Flavopiridol [2]; 0.03162 µM): 0.007
increase in dead-cell fraction (Flavopiridol [2]; 0.1 µM): 0.051
increase in dead-cell fraction (Flavopiridol [2]; 0.3162 µM): 0.183
increase in dead-cell fraction (Flavopiridol [2]; 1 µM): 0.577
GR value (YKL-5-124; 0.001 µM): 0.41 GR
GR value (YKL-5-124; 0.003162 µM): 0.245 GR
GR value (YKL-5-124; 0.01 µM): 0.16 GR
GR value (YKL-5-124; 0.03162 µM): 0.177 GR
GR value (YKL-5-124; 0.1 µM): 0.0758 GR
GR value (YKL-5-124; 0.3162 µM): 0.0849 GR
GR value (YKL-5-124; 1 µM): 0.0535 GR
GR value (YKL-5-124; 3.162 µM): -0.036 GR
GR value (YKL-5-124; 10 µM): -0.144 GR
GR value (BSJ-03-123; 0.001 µM): 0.903 GR
GR value (BSJ-03-123; 0.003162 µM): 0.87 GR
GR value (BSJ-03-123; 0.01 µM): 0.78 GR
GR value (BSJ-03-123; 0.03162 µM): 0.635 GR
GR value (BSJ-03-123; 0.1 µM): 0.702 GR
GR value (BSJ-03-123; 0.3162 µM): 0.551 GR
GR value (BSJ-03-123; 1 µM): 0.386 GR
GR value (BSJ-03-123; 3.162 µM): 0.34 GR
GR value (BSJ-03-123; 10 µM): -0.153 GR
GR value ([3]; 0.0003162 µM): 1.03 GR
GR value ([3]; 0.001 µM): 1.06 GR
GR value ([3]; 0.003162 µM): 1.03 GR
GR value ([3]; 0.01 µM): 0.956 GR
GR value ([3]; 0.03162 µM): 0.796 GR
GR value ([3]; 0.1 µM): 0.615 GR
GR value ([3]; 0.3162 µM): 0.458 GR
GR value ([3]; 1 µM): 0.354 GR
GR value ([3]; 3.162 µM): 0.235 GR
GR value ([4]; 0.001 µM): 1.05 GR
GR value ([4]; 0.003162 µM): 0.987 GR
GR value ([4]; 0.01 µM): 0.867 GR
GR value ([4]; 0.03162 µM): 0.718 GR
GR value ([4]; 0.1 µM): 0.588 GR
GR value ([4]; 0.3162 µM): 0.433 GR
GR value ([4]; 1 µM): 0.279 GR
GR value ([4]; 3.162 µM): 0.136 GR
GR value ([4]; 10 µM): 0.0346 GR
GR value (Neratinib/HKI272; 0.0003162 µM): 1.07 GR
GR value (Neratinib/HKI272; 0.001 µM): 1.09 GR
GR value (Neratinib/HKI272; 0.003162 µM): 1.08 GR
GR value (Neratinib/HKI272; 0.01 µM): 1.01 GR
GR value (Neratinib/HKI272; 0.03162 µM): 0.89 GR
GR value (Neratinib/HKI272; 0.1 µM): 0.57 GR
GR value (Neratinib/HKI272; 0.3162 µM): 0.349 GR
GR value (Neratinib/HKI272; 1 µM): 0.269 GR
GR value (Neratinib/HKI272; 3.162 µM): 0.105 GR
GR value ([5]; 0.0001 µM): 1.08 GR
GR value ([5]; 0.0003162 µM): 1.07 GR
GR value ([5]; 0.001 µM): 1.1 GR
GR value ([5]; 0.003162 µM): 1.09 GR
GR value ([5]; 0.01 µM): 0.754 GR
GR value ([5]; 0.03162 µM): -0.268 GR
GR value ([5]; 0.1 µM): -0.267 GR
GR value ([5]; 0.3162 µM): -0.27 GR
GR value ([5]; 1 µM): -0.28 GR
GR value (LEE011/Ribociclib; 0.001 µM): 0.864 GR
GR value (LEE011/Ribociclib; 0.003162 µM): 0.776 GR
GR value (LEE011/Ribociclib; 0.01 µM): 0.741 GR
GR value (LEE011/Ribociclib; 0.03162 µM): 0.737 GR
GR value (LEE011/Ribociclib; 0.1 µM): 0.623 GR
GR value (LEE011/Ribociclib; 0.3162 µM): 0.568 GR
GR value (LEE011/Ribociclib; 1 µM): 0.538 GR
GR value (LEE011/Ribociclib; 3.162 µM): 0.467 GR
GR value (LEE011/Ribociclib; 10 µM): 0.29 GR
GR value (THZ531; 0.0001 µM): 0.956 GR
GR value (THZ531; 0.0003162 µM): 0.956 GR
GR value (THZ531; 0.001 µM): 0.939 GR
GR value (THZ531; 0.003162 µM): 1.03 GR
GR value (THZ531; 0.01 µM): 1.11 GR
GR value (THZ531; 0.03162 µM): 1.02 GR
GR value (THZ531; 0.1 µM): 0.889 GR
GR value (THZ531; 0.3162 µM): 0.179 GR
GR value (THZ531; 1 µM): -0.207 GR
GR value (THZ1; 0.0001 µM): 1.1 GR
GR value (THZ1; 0.0003162 µM): 0.944 GR
GR value (THZ1; 0.001 µM): 0.928 GR
GR value (THZ1; 0.003162 µM): 0.72 GR
GR value (THZ1; 0.01 µM): -0.0367 GR
GR value (THZ1; 0.03162 µM): -0.275 GR
GR value (THZ1; 0.1 µM): -0.295 GR
GR value (THZ1; 0.3162 µM): -0.319 GR
GR value (THZ1; 1 µM): -0.497 GR
GR value (Flavopiridol [6]; 0.0001 µM): 1 GR
GR value (Flavopiridol [6]; 0.0003162 µM): 0.975 GR
GR value (Flavopiridol [6]; 0.001 µM): 0.942 GR
GR value (Flavopiridol [6]; 0.003162 µM): 0.876 GR
GR value (Flavopiridol [6]; 0.01 µM): 0.892 GR
GR value (Flavopiridol [6]; 0.03162 µM): 0.806 GR
GR value (Flavopiridol [6]; 0.1 µM): 0.536 GR
GR value (Flavopiridol [6]; 0.3162 µM): 0.155 GR
GR value (Flavopiridol [6]; 1 µM): -0.408 GR
